Where two headings read alike, the source gives them in different places.
Columns and labels:
MCF-7/Adr cells = experiment: Uptake and release by flow cytometry; assay type: cell-based, human; settings: for drug uptake (DOX fluorophore): 500 nM, 20, 40 and 60 min
Description: Uptake and release of DOX-TEG-TAM: The uptake of 500 nM DOX, DOXSF, and DOX-TEG-TAM following treatment for various times up to 1 h was assessed by flow cytometry. […] The release of drugs following a 500 nM treatment for 1 h was assessed at various times out to 6 h post-treatment. Resistant MCF-7/Adr cells were first assessed as they provide a means to evaluate the AEBS targeting hypothesis to explain the dramatic improvement in tumor cell growth inhibition observed for DOX-TEG-TAM relative to DOXSF and clinical DOX. […] In all three cases the drug fluorescence decreased dramatically up to 1 h post-treatment, as free drug was transported from the cell. […] The enhanced uptake and retention of DOX-TEG-TAM relative to DOX and DOXSF parallels the growth inhibition data of Example 4 and provides evidence in favor of the targeting hypothesis involving interaction with AEBS.
Uptake and release of DOX, DOXSF, and DOX-TEG-TAM: The uptake and release of DOX-TEG-TAM in breast cancer cells relative to DOX and untargeted DOXSF was performed as described with modifications. Breast cancer cells in log phase growth were dissociated with trypsin-EDTA, counted, resuspended in media at 1.5×10^5 cells/mL, and plated into six well plates (450,000 cells/well) and allowed to adhere overnight. The cells were treated with 0.5 μM DOX, DOXSF, or DOX-TEG-TAM for various amounts of time (20 min, 40 min, and 60 min). Drug treatment was accomplished by addition of 30 μL of 100× drug solution (50 μM) to 3 mL of media which was mixed and immediately added to the cells. For each time point, the media was removed, cells were trypsinized, and trypsinization was quenched with 3 mL phenol red-free RPMI 1640 media (no serum) at 4° C. Cells were pelleted by centrifugation at 300 g for 5 min at 10° C. The supernatant was decanted and the cells were re-suspended in 1 mL serum- and phenol red-free RPMI 1640 media and placed on ice.
For drug retention samples, the cells were treated for 1 h with 0.5 μM DOX, DOXSF, or DOX-TEG-TAM. Following drug treatment, the media was removed and replaced with 3 mL fresh, 37° C., full (containing serum and phenol red indicator) cell media and the cells were incubated for various times (0.5 h, 1 h, 3 h, and 6 h). Following the allotted release times, the cells were prepared as described above. […]
The extent of drug uptake and retention was measured by flow cytometry. Cells were analyzed with excitation at 488 nm (15 mW Ar ion laser), with emission monitored between 570 and 600 nm. Instrument settings were optimized for each cell line and held constant for all experiments; 10,000 cells were analyzed for anthracycline fluorescence. The data are presented as the mean fluorescence for each condition with the background, drug-free cell fluorescence subtracted.

MDA-MB-435 cells [1] = experiment: Growth inhibition assay (Example 6); assay type: cell-based, human; settings: read-out: IC50 for inhibition of cell growth (nM), treatment time
Description: […] Cells were quantified via measuring crystal violet staining or cellular metabolism of MTT. For every experiment, each condition was performed in hexuplicate; experiments were performed at least twice.
Cancer cell growth inhibition: acyclic-RGD-4C-DOXSF and cyclic-(N-Me-VRGDf-NH)-DOXSF were also assayed for their ability to inhibit growth of MDA-MB-435 cells relative to DOX and DOXSF. Cells treated in cell culture plates and non-treated (-control) cells were allowed to grow to near confluency, and then quantified via measuring crystal violet staining or cellular metabolism of MTT. […] Earlier control experiments established that the miniscule amounts of formaldehyde that would be released even from complete hydrolysis of the conjugate would contribute nothing to the observed growth inhibition. Conjugation of cytotoxic drugs to triggers and targeting groups often causes a drop in cytotoxicity.

[2] = target: T1, ανβ3 integrin present on viable MDA-MB-435 cells (Homo sapiens, UniProt P05106+P06756); experiment: Vitronectin cell adhesion (competition) assay; assay type: cell-based; settings: MDA-MB-435 cell binding to vitronectin, 500 μM Mn2+; read-out: IC50 for inhibition of cell binding
T1 construct: endogenous in cells
From the text: The data are presented as the mean fluorescence for each condition with the background, drug-free cell fluorescence subtracted.

MDA-MB-435 cells [3] = experiment: Uptake of DOX, DOXSF and acyclic-RGD-4C-DOXSF by flow cytometry; assay type: cell-based, human; settings: for RFU with 100 nM drug / RFU with 500 nM drug / RFU with 1000 nM drug: no additional Mn2+
Description: MDA-MB435 breast cancer cells in log phase growth were dissociated with trypsin-EDTA, counted, resuspended in media at 2×10^5 cells/mL, and plated into six-well plates (5.0×10^5 cells/well) and allowed to adhere overnight. Drug solutions of DOX, DOXSF, and ayclic-RGD-4C-DOXSF were prepared in DMSO with 1% acetic acid at 50 μM. Before treatment with drug, cell media was removed, cells were washed with HBSS (0.5 mL), and then fresh cell media, with or without 500 μM Mn^2+, was placed into the wells (2 mL). […] For each time point, the cell media was removed, cells were washed with HBSS, trypsinized, and trypsinization was quenched with 5 mL of cell media at 4° C. Cells were pelleted by centrifugation at 200 g for 5 min at 10° C. The supernatant was decanted, and the cells were resuspended in 5 mL of D-PBS at 4° C., repelleted, resuspended in 2 mL of D-PBS at 4° C., and placed on ice. […] The amount of drug uptake was measured by flow cytometry. Cells were analyzed with excitation at 488 nm (15 mW Ar ion laser), with emision monitored between 570 and 600 nm. Instrument settings were optimized for the cell line and held constant for all experiments; 10,000 cells were analyzed for each sample's anthracycline fluorescence. The data are presented as the mean fluorescence for each condition divided by the background, drug-free mean fluorescence.
Concentration of targeted drug relative to DOX and DOXSF in cells was determined from emission of the DOX fluorophore.

| SMILES | drug uptake (DOX fluorophore) (MCF-7/Adr cells) | drug retention (MCF-7/Adr cells; 6 h after 1 h treatment with 500 nM) | IC50 (MDA-MB-435 cells [1]; Homo sapiens, MDA-MB-435, 20 min, 20 min treatment) [nM] | IC50 (MDA-MB-435 cells [1]; Homo sapiens, MDA-MB-435, 1 h treatment) [nM] | IC50 (MDA-MB-435 cells [1]; Homo sapiens, MDA-MB-435, 4 h treatment) [nM] | IC50 [2] [nM] | RFU with 100 nM drug (MDA-MB-435 cells [3]; 30 min) [RFU] | RFU with 500 nM drug (MDA-MB-435 cells [3]; 30 min) [RFU] | RFU with 1000 nM drug (MDA-MB-435 cells [3]; 30 min) [RFU] | fold uptake more than acyclic-RGD-4C-DOXSF (MDA-MB-435 cells [3]; 1 h drug treatment) [fold] | RFU with 100 nM drug (MDA-MB-435 cells [3]; 4 h) [RFU] | RFU with 500 nM drug (MDA-MB-435 cells [3]; 4 h) [RFU] | RFU with 1000 nM drug (MDA-MB-435 cells [3]; 4 h) [RFU] | IC50 (MDA-MB-435 cells [1]; 4 h treatment) [nM] | fold uptake higher than acyclic-RGD-4C-DOXSF and DOX (MDA-MB-435 cells [3]; 4 h, 500 nM) [fold] |
| --- | --- | --- | --- | --- | --- | --- | --- | --- | --- | --- | --- | --- | --- | --- | --- |
| CC/C(=C(/c1ccc(O)cc1)c1ccc(OCCN(C)CCOCCOCCO/N=C/c2ccc(O)c(C(=O)NCN[C@H]3C[C@H](O[C@H]4C[C@](O)(C(=O)CO)Cc5c(O)c6c(c(O)c54)C(=O)c4c(OC)cccc4C6=O)O[C@@H](C)[C@H]3O)c2)cc1)c1ccccc1 [11c, E/Z-N-(2-Hydroxy-5-{[2-(2-{2-[(2-{4-[1-(4-hydroxy-phenyl)-2-phenyl-but-1-enyl]-phenoxy}-ethyl)-methyl-amino]-ethoxy}-ethoxy)-ethoxyimino]-methyl}-benzamide)-doxorubicin] | almost twice as much | maintained a higher level of drug retention relative to DOX and DOXSF | – | – | – | – | – | – | – | – | – | – | – | – | – |
| COc1cccc2c1C(=O)c1c(O)c3c(c(O)c1C2=O)C[C@@](O)(C(=O)CO)C[C@@H]3O[C@H]1C[C@H](N)[C@H](O)[C@H](C)O1 [doxorubicin, reference compound] | one relative fluorescent unit | – | 800 | 300 | 120 | > 10000 | 1.23 | 2.12 | 3.21 | 3 | 1.90 | 5.88 | 12.03 | – | – |
| COc1cccc2c1C(=O)c1c(O)c3c(c(O)c1C2=O)C[C@@](O)(C(=O)CO)C[C@@H]3O[C@H]1C[C@H](NCNC(=O)c2ccccc2O)[C@H](O)[C@H](C)O1 [doxsaliform, N-(2-Hydroxybenzamido-methyl)-doxorubicin] | one relative fluorescent unit | – | – | – | – | > 10000 | 1.88 | 5.55 | 9.23 | – | 3.23 | 13.25 | 24.51 | 50 | 2 |
